This note sets out measurements from patent US10030016B2 (Sunesis Pharmaceuticals, Inc., priority 2009, dated 2018).

One experiment concerns the target PDK1 (Homo sapiens (Human), UniProt O15530). Briefly: PDK1 kinase assay (coupled PDK1/AKT/FAM-crosstide assay, IMAP fluorescence polarization). Type of experiment: biochemical. The method in brief: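 GST-tagged PDK1 (aa 51-359, 0.75 nM) was coupled to unphosphorylated GST-AKT2 140-467-PIFtide (10 nM) and 100 nM FAM-crosstide at 40 μM ATP, in Tris pH 7.2 buffer, for 30 min at 25 °C. Crosstide phosphorylation was read by IMAP fluorescence polarization (ΔmP) and fitted with a 4-parameter curve.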

Experiment [1] has as its system phospho-akt (Thr308) in PC-3 cells. Briefly: Inhibition of phospho-akt (Thr308) in PC-3 cells, MSD phospho-akt 308 ELISA kit. It counts as cell-based. The conditions noted are these: Homo sapiens. In a few lines: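 PC-3 cells (15,000/well, overnight in 10% FBS medium) treated 2 h with three-fold diluted compounds in serum-free medium; DMSO high and 5 μM wortmannin low controls. Lysates captured on BSA-blocked MSD plates overnight at 4 °C, then 1 h antibody detection at RT; phospho-Akt Thr308 read by MSD electrochemiluminescence.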

Setting [2] is: inhibition of P308 Akt in PC-3 cells using MSD, 2 hours, no serum, read-out: EC50.
Where [3] appears, read: inhibition of phospo-PDK1 in vitro.
The mark [4] stands for this setting: inhibition of P308 Akt in PC-3 cells, 2 hours, no serum, MSD, read-out: EC50.
Where [5] appears, read: PC-3, 2 h, inhibition of P308 Akt in PC-3 cells using MSD, 2 hours, no serum, read-out: EC50.

Structures can show the parent of a compound that is named as a salt. Where two headings read alike, the source gives them in different places.

Sequence of PDK1 (O15530 51-359): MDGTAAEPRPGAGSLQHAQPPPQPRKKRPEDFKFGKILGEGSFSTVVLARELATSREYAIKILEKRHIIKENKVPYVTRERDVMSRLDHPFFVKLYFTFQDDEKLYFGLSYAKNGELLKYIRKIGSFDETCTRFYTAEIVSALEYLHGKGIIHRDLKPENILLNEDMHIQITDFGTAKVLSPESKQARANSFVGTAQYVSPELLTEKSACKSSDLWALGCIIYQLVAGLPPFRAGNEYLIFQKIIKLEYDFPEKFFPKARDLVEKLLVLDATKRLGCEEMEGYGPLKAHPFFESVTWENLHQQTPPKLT

By IC50 is commonly meant the concentration at which inhibition is half-maximal. High values mean weaker potency, low ones greater potency. As usually defined, the EC50 is the midpoint of the concentration-response curve. For the compound `Nc1ncnc2ccc(-c3ccc(CNc4ncc(S(=O)(=O)NCCO)cc4C(=O)NCc4ccc(F)c(F)c4)s3)cc12` [Example 343, 2-((5-(4-aminoquinazolin-6-yl)thiophen-2-yl)methyl)amino)-(N-(3,4-difluorobenzyl)-5-(N-(2-hydroxyethyl)sulfamoyl)nicotinamide], the IC50 at PDK1 (inhibition of PDK1 in vitro) is < 100 nM. Besides, in experiment [1] (setting [2]), the EC50 was < 1000 nM.
In the same order, the values of `C[C@H](NC(=O)c1nc(C#N)cnc1NCc1ccc(-c2cnc(N)c(C(=O)N3CCNCC3)n2)cc1)c1ccc(F)c(F)c1` [Example 219, 3-{4-[5-Amino-6-(piperazine-1-carbonyl)-pyrazin-2-yl]-benzylamino}-6-cyano-pyrazine-2-carboxylic acid [(S)-1-(3,4-difluoro-phenyl)-ethyl]-amide] are < 100 nM and 1000 to 10000 nM.
In the same order, the values of `CNC(=O)C[C@@H](Nc1ncc(C#N)cc1C(=O)N[C@@H](C)c1ccc(F)cc1)c1ccc(-c2c[nH]c3ncnc(N)c23)cc1` [Example 47, 2-((R)-1-(4-(4 - amino-7H-pyrrolo[2,3-d]pyrimidin-5-yl)phenyl)-3-(methylamino)-3-oxopropylamino)-5-cyano-N-((S)-1-(4-fluorophenyl)ethyl)nicotinamide] are < 100 nM and > 10000 nM.
In the same order, the values of `C[C@H](NC(=O)c1cc(C#N)cnc1NCc1ccc(-c2cnc(N)c(O[C@@H]3CCNC3)n2)cc1)c1ccc(F)cc1` [Example 160, 2-{4-[5-Amino-6-((R)-pyrrolidin-3-yloxy)-pyrazin-2-yl]-benzylamino}-5-cyano-N-[(S)-1-(4-fluoro-phenyl)-ethyl]-nicotinamide] are < 100 nM and < 1000 nM.
For the compound `NC(=O)c1cc(CNc2ncccc2C(=O)NCc2ccc(F)c(F)c2)ccc1-n1ccnc1` [Example 50, 2-(3-carbamoyl-4-(1H-imidazol-1-yl)benzylamino)-N-(3,4-difluorobenzyl)nicotinamide], the IC50 on PDK1 (inhibition of PDK1 in vitro) is > 5000 nM. Moreover, in experiment [1] (setting [2]), the EC50 was > 10000 nM.
The like results for `Nc1ncnn2c(-c3ccc(CNc4ncc(C(F)(F)F)cc4C(=O)Nc4ccc(F)cc4)cc3)ccc12` [Example 180, 2-[4-(4-Amino-pyrrolo [2,1-f][1,2,4]triazin-7-yl)-benzylamino]-N-(4-fluoro-phenyl)-5-trifluoromethyl-nicotinamide] were, in that order, < 100 nM and 1000 to 10000 nM.
In the same order, the values of `Nc1n[nH]c2ncc(-c3ccc(CNc4ncc(C(F)(F)F)cc4C(=O)NCc4cccc(Cl)c4)cc3)cc12` [Example 281, 2-(4-(3-amino-1H-pyrazolo [3,4-b]pyridin-5-yl)benzylamino)-N-(3-chlorobenzyl)-5-(trifluoromethyl)nicotinamide] are < 100 nM and < 1000 nM.
The like results for `CC(C)Oc1cc(CNc2ncccc2C(=O)NCc2ccc(F)c(F)c2)cc(-c2c[nH]c3ncc(-c4ccn[nH]4)cc23)c1` [Example 53, 2-(3-(5-(1H-pyrazol-5-yl)-1H-pyrrolo[2,3-b]pyridin-3-yl)-5-isopropoxybenzylamino)-N-(3,4-difluorobenzyl)nicotinamide] were, in that order, < 100 nM and 1000 to 10000 nM.
As for `C[C@H](NC(=O)c1cc(C#N)cnc1NCc1ccc(-c2n[nH]c3ncnc(N)c23)cc1)c1ccc(F)cc1` [Example 96, 2-[4-(4-Amino-1H-pyrazolo [3,4-d]pyrimidin-3-yl)-benzylamino]-5-cyano-N-[(S)-1-(4-fluoro-phenyl)-ethyl]-nicotinamide], on PDK1 (inhibition of PDK1 in vitro), the IC50 was < 100 nM. For the same compound, in experiment [1] (setting [2]), the EC50 was in the range of 1000 to 10000 nM.
With `C[C@H](NC(=O)c1cccnc1NCc1ccc(-c2ccc3ncc(-n4ccnc4)nc3c2)s1)c1ccc(F)c(F)c1` [Example 4.29, (S)-2-(((5-(3-(1H-imidazol-1-yl)quinoxalin-6-yl)thiophen-2-yl)methyl)amino)-N-(1-(3,4-difluorophenyl)ethyl) nicotinamide], the IC50 at PDK1 (setting [3]) is > 5000 nM. The EC50 in experiment [1] (setting [4]) is > 10000 nM.
Regarding `CC(C)[C@H](NC(=O)c1cccnc1NCc1ccc(-c2ccc3ncnc(N)c3c2)s1)c1cccc(F)c1` [Example 3.44, (S)-2-((5-(4-aminoquinazolin-6-yl)thiophen-2-yl)methylamino)-N-(1-(3-fluorophenyl)-2-methylpropyl)nicotinamide (TFA salt)], the IC50 against PDK1 (setting [3]) was 100 to 1000 nM. The EC50 in experiment [1] (setting [4]) lay in the range of 1000 to 10000 nM.
As for `C[C@H](NC(=O)c1cc(C#N)cnc1NCc1ccc(-c2cnc(N)c(CCCN(C)C)n2)cc1)c1ccc(F)cc1` [Example 158, (S)-2-(4-(5-amino-6-(3-(dimethylamino)propyl)pyrazin-2-yl)benzylamino)-5-cyano-N-(1-(4-fluorophenyl)ethyl) nicotinamide], the IC50 on PDK1 (inhibition of PDK1 in vitro) is < 100 nM. Besides, the EC50 in experiment [1] (setting [2]) was < 1000 nM.
The like results for `Cc1n[nH]c2ncc(-c3ccc(CNc4ncc(C#N)nc4C(=O)N[C@@H](C)c4ccc(F)c(F)c4)cc3)cc12` [Example 410, (S)-6-cyano-N-(1-(3,4-difluorophenyl)ethyl)-3-(4-(3-methyl-1H-pyrazolo [3,4-b]pyridin-5-yl)benzylamino)pyrazine-2-carboxamide] were, in that order, < 100 nM and < 1000 nM.
Take `C[C@H](NC(=O)c1cccnc1NCc1ccc(-c2cnc3[nH]ncc3c2)cc1)c1ccc(F)c(F)c1` [Example 2.39, N-[(S)-1-(3,4-Difluoro-phenyl)-ethyl]-2-[4-(1H-pyrazolo[3,4-b]pyridin-5-yl)benzyl-amino]-nicotinamide]: the IC50 on PDK1 (setting [3]) is < 100 nM. Besides, the EC50 in experiment [1] (setting [4]) was < 1000 nM.
On to `C[C@H](NC(=O)c1cc(C#N)cnc1NCc1ccc(-c2cnc(N)c(CCCN)n2)cc1)c1ccc(F)cc1` [Example 70, 2-{4-[5-Amino-6-(3-amino-propyl)-pyrazin-2-yl]-benzylamino}-5-cyano-N-[(S)-1-(4-fluoro-phenyl)-ethyl]-nicotinamide], for which, on PDK1 (inhibition of PDK1 in vitro), the IC50 is < 100 nM. Also, in experiment [1] (setting [2]), the EC50 was < 1000 nM.
At PDK1 (inhibition of PDK1 in vitro), `Nc1n[nH]c2ncc(-c3ccc(CNc4ncc(C(F)(F)F)cc4C(=O)N4CC(F)(F)C4)cc3)cc12` [Example 293] came in with an IC50 of 1000 to 5000 nM. Also, the EC50 in experiment [1] (setting [5]) was > 10000 nM.
Take `O=C1Nc2cc(/C=C/CNc3ncccc3C(=O)NCc3cncc(F)c3)ccc2/C1=C/c1cnc[nH]1` [Example 15.15, 2-((E)-3-((Z)-3-((1H-imidazol-5-yl)methylene)-2-oxoindolin-6-yl)allylamino)-N-((5-fluoropyridin-3-yl)methyl) nicotinamide]: the IC50 against PDK1 (setting [3]) was < 100 nM. The EC50 in experiment [1] (setting [4]) was < 1000 nM.
With `Nc1ncnc2ccc(-c3ccccc3CNc3ncccc3C(=O)NCc3ccc(F)c(F)c3)cc12` [Ex. 6.5, 2-{[2-(4-aminoquinazolin-6-yl)benzyl]amino}-N-(3,4-difluorobenzyl) pyridine-3-carboxamide], the IC50 against PDK1 (setting [3]) was > 5000 nM. The EC50 in experiment [1] (setting [4]) was in the range of 1000 to 10000 nM.
The like results for `CCOC(=O)c1cnc(NCc2ccc(-c3ccc4ncnc(N)c4c3)s2)c(C(=O)NCc2ccc(F)c(F)c2)c1` [Example 7.23.2, Ethyl 6-({[5-(4-aminoquinazolin-6-yl)thiophen-2-yl]methyl}amino)-5-[(3,4-difluorobenzyl)carbamoyl]pyridine-3-carboxylate] were, in that order, 100 to 1000 nM and < 1000 nM.
On to `C[C@H](NC(=O)c1cc(C#N)cnc1NCc1ccc(-c2cnc3[nH]nc(CCCN)c3c2)cc1)c1ccc(F)cc1` [Example 150], for which the IC50 against PDK1 (inhibition of PDK1 in vitro) is < 100 nM. The EC50 in experiment [1] (setting [2]) was < 1000 nM.
On to `O=C(NCc1ccc(F)c(F)c1)c1cccnc1NCc1cccc(-c2c[nH]c3ncccc23)c1` [Example 1.5, 2-(3-(1H-pyrrolo[2,3-b]pyridin-3-yl)benzylamino)-N-(3,4-difluorobenzyl)nicotinamide], for which the IC50 at PDK1 (setting [3]) was < 100 nM. In experiment [1] (setting [4]), the EC50 is 1000 to 10000 nM.
For the compound `COC(=O)C[C@@H](Nc1ncc(C#N)cc1C(=O)N[C@@H](C)c1ccc(F)cc1)c1ccc(-c2c[nH]c3ncnc(N)c23)cc1` [Example 44, (R)-methyl 3-(4-(4-amino-7H-pyrrolo[2,3-d]pyrimidin-5-yl)phenyl)-3-(5-cyano-3-((S)-1-(4-fluorophenyl)ethylcarbamoyl)pyridin-2-ylamino)propanoate], on PDK1, the IC50 is < 100 nM. The compound also showed an EC50 in experiment [1] (PC-3, 2 h) of 1000 to 10000 nM.
For `Nc1n[nH]c2ncc(-c3ccc(CNc4ncc(C(F)(F)F)cc4C(=O)N4CCc5cc(F)ccc54)cc3)cc12` [Example 30, (2-(4-(3-amino-1H-pyrazolo[3,4-b]pyridin-5-yl)benzylamino)-5-(trifluoromethyl)pyridin-3-yl)(5-fluoroindolin-1-yl)methanone], the IC50 at PDK1 (setting [3]) was < 100 nM. Further, in experiment [1] (setting [4]), the EC50 was < 1000 nM.
As for `CNc1ncc2cc(O[C@@H](C)CNc3ncc(C#N)nc3C(=O)N[C@@H](C)c3ccc(F)c(F)c3)ccc2n1` [Example 254, 6-cyano-N-((S)-1-(3,4-difluorophenyl)ethyl)-3-((S)-2-(2-(methylamino)quinazolin-6-yloxy)propylamino)pyrazine-2-carboxamide], the IC50 against PDK1 (inhibition of PDK1 in vitro) fell in the range of 100 to 1000 nM. In experiment [1] (setting [5]), the EC50 was 1000 to 10000 nM.
Regarding `Nc1ncnc2ccc(-c3ccc(CNc4ncccc4C(=O)N(Cc4cncc(F)c4)Cc4cncc(F)c4)s3)cc12` [Example 3.64, 2-(((5-(4-aminoquinazolin-6-yl)thiophen-2-yl)methyl)amino)-N,N-bis((5-fluoropyridin-3-yl)methyl)nicotinamide (TFA salt)], the IC50 against PDK1 (setting [3]) is > 5000 nM. In addition, the EC50 in experiment [1] (setting [4]) was 1000 to 10000 nM.
